target: T1, ERα (Homo sapiens, UniProt P03372); test: Estrogen receptor degradation activity: breast cancer cell ERα in cell western assay in MCF7 cells; type: cell-based; conditions: 0.3 μM, 4 hours, relative to fulvestrant 0.1 μM positive control
T1 construct: made using a breast cancer cell ERα in cell western assay; host or cells: MCF7
T1 sequence (P03372 1-595): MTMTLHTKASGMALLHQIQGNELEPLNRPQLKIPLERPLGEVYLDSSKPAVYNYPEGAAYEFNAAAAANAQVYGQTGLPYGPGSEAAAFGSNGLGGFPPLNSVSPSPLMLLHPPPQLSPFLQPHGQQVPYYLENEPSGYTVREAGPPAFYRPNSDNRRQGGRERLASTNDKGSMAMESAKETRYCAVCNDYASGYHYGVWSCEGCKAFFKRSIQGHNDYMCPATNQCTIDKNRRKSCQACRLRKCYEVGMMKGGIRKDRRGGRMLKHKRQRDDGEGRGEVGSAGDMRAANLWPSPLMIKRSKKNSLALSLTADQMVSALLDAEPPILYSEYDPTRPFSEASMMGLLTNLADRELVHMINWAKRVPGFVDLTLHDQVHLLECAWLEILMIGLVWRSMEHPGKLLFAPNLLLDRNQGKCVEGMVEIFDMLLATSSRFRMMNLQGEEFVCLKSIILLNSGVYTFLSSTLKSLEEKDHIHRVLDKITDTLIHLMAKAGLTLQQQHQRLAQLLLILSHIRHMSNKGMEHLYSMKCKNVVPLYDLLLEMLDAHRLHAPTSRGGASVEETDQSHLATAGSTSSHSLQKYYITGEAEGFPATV
Method: Said test involves measuring the in vitro degradation activity of the compounds of the Table 1a.
The measurements of the degradation activities were made using a breast cancer cell ERα in cell western assay as described hereunder.
MCF7 cells (ATCC) were seeded in 384 wells microplate (collagen coated) at a concentration of 10000 cells/30 μL per well in red phenol free MEM alpha medium (invitrogen) containing 5% charcoal dextran striped FBS. The following day, 9 points serial 1:5 dilution of each compound was added to the cells in 2.5 μL at final concentrations ranging from 0.3-0.0000018 μM (in table 2), or 0.1 μM for fulvestrant (using as positive control). At 4 hours post compound addition the cells were fixed by adding 25 μL of formalin (final concentration 5% formalin containing 0.1% triton) for 10 minutes at room temperature and then washed twice with PBS. Then, 50 μL of LI-COR blocking buffer containing 0.1% Triton was added to plate for 30 minutes at room temperature. LI-COR blocking buffer was removed and cells were incubated overnight at cold room with 50 μL anti-ER rabbit monoclonal antibody (Thermo scientific MA1-39540) diluted at 1:1000 in LI-COR blocking buffer containing 0.1% tween-20. Wells which were treated with blocking buffer but no antibody were used as background control. Wells were washed twice with PBS (0.1% tween-20) and incubated at 37° C. for 60 minutes in LI-COR (0.1% tween-20) containing goat anti-rabbit antibody Alexa 488 (1:1000) and Syto-64 a DNA dye (2 μM final concentration). Cells were then washed 3 times in PBS and scanned in ACUMEN explorer (TTP-Labtech). Integrated intensities in the green fluorescence and red fluorescence were measured to determine the levels of ERα and DNA respectively.
The degradation activity with respect to estrogen receptors in this test is given by the concentration which degrades 50% of the estrogen receptor (or IC50) in nM.
The % of ERα levels decrease were determined as follows: % inhibition=100*(1−(sample−fulvestrant: DMSO−fulvestrant)).

Structure (SMILES) | % Degradation At 0.3 μM
CC1CCC(C2=C(c3cccc(OC4CCN(CCCF)C4)c3)c3ccc(C(=O)O)cc3CCC2)CC1 (single isomer, unassigned; isomer 1) [Compound 11] | 76%
O=C(O)c1ccc2c(c1)CCCC(c1ccc(Cl)cc1Cl)=C2c1cccc(CC2CCN(CCCF)C2)c1 (single isomer, unassigned; isomer 1) [Compound 28, 8-(2,4-dichlorophenyl)-9-(3-((1-(3-fluoropropyl)pyrrolidin-3-yl)methyl)phenyl)-6,7-dihydro-5H-benzo[7]annulene-3-carboxylic acid, Isomer 1] | 87%
CC1CCc2cc(C(=O)O)ccc2C(c2cccc(OC3CCN(CCCF)C3)c2)=C1c1cccc(Cl)c1 (single isomer, unassigned; isomer 1) [Compound 36] | 69%
CC1CCC(C2=C(c3cccc(OC4CCN(CCCF)C4)c3)c3ccc(C(=O)O)cc3CCC2)CC1 (single isomer, unassigned; isomer 2) [Compound 12] | 84%
CC1CCc2cc(C(=O)O)ccc2C(c2cccc(OC3CCN(CCCF)C3)c2)=C1c1cccc(Cl)c1 (single isomer, unassigned; isomer 2) [Compound 37] | 67%
O=C(O)c1ccc2c(c1)CCCC(c1ccc(Cl)cc1Cl)=C2c1cccc(O[C@@H]2CCN(CCCF)C2)c1 [Compound 1, (R)-8-(2,4-dichlorophenyl)-9-(3-((1-(3-fluoropropyl)pyrrolidin-3-yl)oxy)phenyl)-6,7-dihydro-5H-benzo[7]annulene-3-carboxylic acid] | 85%
O=C(O)c1ccc2c(c1)CCCC(c1ccc(Cl)cc1Cl)=C2c1cccc(O[C@H]2CCN(CCCF)C2)c1 [Compound 1a, (S)-8-(2,4-dichlorophenyl)-9-(3-((1-(3-fluoropropyl)pyrrolidin-3-yl)oxy)phenyl)-6,7-dihydro-5H-benzo[7]annulene-3-carboxylic acid] | Inactive
O=C(O)c1ccc2c(c1)CCCC(c1ccccc1)=C2c1cccc(O[C@@H]2CCN(CCCF)C2)c1 [Compound 2, (R)-9-(3-((1-(3-fluoropropyl)pyrrolidin-3-yl)oxy)phenyl)-8-phenyl-6,7-dihydro-5H-benzo[7]annulene-3-carboxylic acid] | 81%
O=C(O)c1ccc2c(c1)CCCC(c1ccccc1)=C2c1cccc(O[C@H]2CCN(CCCF)C2)c1 [Compound 2a, (S)-9-(3-((1-(3-fluoropropyl)pyrrolidin-3-yl)oxy)phenyl)-8-phenyl-6,7-dihydro-5H-benzo[7]annulene-3-carboxylic acid] | Inactive
O=C(O)c1ccc2c(c1)CCCC(c1ccccc1Cl)=C2c1cccc(O[C@@H]2CCN(CCCF)C2)c1 [Compound 3, (R)-8-(2-chlorophenyl)-9-(3-((1-(3-fluoropropyl)pyrrolidin-3-yl)oxy)phenyl)-6,7-dihydro-5H-benzo[7]annulene-3-carboxylic acid] | 84%
O=C(O)c1ccc2c(c1)CCCC(c1ccc(F)cc1Cl)=C2c1cccc(O[C@@H]2CCN(CCCF)C2)c1 [Compound 5, (R)-8-(2-chloro-4-fluorophenyl)-9-(3-((1-(3-fluoropropyl)pyrrolidin-3-yl)oxy)phenyl)-6,7-dihydro-5H-benzo[7]annulene-3-carboxylic acid] | 91%
O=C(O)c1ccc2c(c1)CCCC(c1ccc(Cl)cc1F)=C2c1cccc(O[C@@H]2CCN(CCCF)C2)c1 [Compound 6, (R)-8-(4-chloro-2-fluorophenyl)-9-(3-((1-(3-fluoropropyl)pyrrolidin-3-yl)oxy)phenyl)-6,7-dihydro-5H-benzo[7]annulene-3-carboxylic acid] | 89%
Cc1ccc(C2=C(c3cccc(O[C@@H]4CCN(CCCF)C4)c3)c3ccc(C(=O)O)cc3CCC2)c(F)c1 [Compound 7, (R)-8-(2-fluoro-4-methylphenyl)-9-(3-((1-(3-fluoropropyl)pyrrolidin-3-yl)oxy)phenyl)-6,7-dihydro-5H-benzo[7]annulene-3-carboxylic acid] | 85%
O=C(O)c1ccc2c(c1)CCCC(c1cccc(F)c1Cl)=C2c1cccc(O[C@@H]2CCN(CCCF)C2)c1 [Compound 9, (R)-8-(2-chloro-3-fluorophenyl)-9-(3-((1-(3-fluoropropyl)pyrrolidin-3-yl)oxy)phenyl)-6,7-dihydro-5H-benzo[7]annulene-3-carboxylic acid] | 90%
Cl.O=C(O)c1ccc2c(c1)CCCC(C1CCC(F)(F)CC1)=C2c1cccc(O[C@@H]2CCN(CCCF)C2)c1 [Compound 10, (R)-8-(4,4-difluorocyclohexyl)-9-(3-((1-(3-fluoropropyl)pyrrolidin-3-yl)oxy)phenyl)-6,7-dihydro-5H-benzo[7]annulene-3-carboxylic acid hydrochloride] | 85%
CC1(C)CCC(C2=C(c3cccc(O[C@@H]4CCN(CCCF)C4)c3)c3ccc(C(=O)O)cc3CCC2)CC1.Cl [Compound 13, (R)-8-(4,4-dimethylcyclohexyl)-9-(3-((1-(3-fluoropropyl)pyrrolidin-3-yl)oxy)phenyl)-6,7-dihydro-5H-benzo[7]annulene-3-carboxylic acid, hydrochloride] | 57%
O=C(O)c1ccc2c(c1)CCCC(C1CCCC1)=C2c1cccc(O[C@@H]2CCN(CCCF)C2)c1 [Compound 14, (R)-8-cyclopentyl-9-(3-((1-(3-fluoropropyl)pyrrolidin-3-yl)oxy)phenyl)-6,7-dihydro-5H-benzo[7]annulene-3-carboxylic acid] | 77%
Cc1c(O[C@@H]2CCN(CCCF)C2)cccc1C1=C(c2ccccc2)CCCc2cc(C(=O)O)ccc21 [Compound 15, (R)-9-(3-((1-(3-fluoropropyl)pyrrolidin-3-yl)oxy)-2-methylphenyl)-8-phenyl-6,7-dihydro-5H-benzo[7]annulene-3-carboxylic acid] | 80%
Cc1c(O[C@@H]2CCN(CCCF)C2)cccc1C1=C(c2ccccc2Cl)CCCc2cc(C(=O)O)ccc21 [Compound 16, (R)-8-(2-chlorophenyl)-9-(3-((1-(3-fluoropropyl)pyrrolidin-3-yl)oxy)-2-methylphenyl)-6,7-dihydro-5H-benzo[7]annulene-3-carboxylic acid] | 97%
Cc1c(O[C@@H]2CCN(CCCF)C2)cccc1C1=C(c2ccc(Cl)cc2Cl)CCCc2cc(C(=O)O)ccc21 [Compound 17, (R)-8-(2,4-dichlorophenyl)-9-(3-((1-(3-fluoropropyl)pyrrolidin-3-yl)oxy)-2-methylphenyl)-6,7-dihydro-5H-benzo[7]annulene-3-carboxylic acid] | 87%
Cc1cc(F)ccc1C1=C(c2cccc(O[C@@H]3CCN(CCCF)C3)c2C)c2ccc(C(=O)O)cc2CCC1 [Compound 18, (R)-8-(4-fluoro-2-methylphenyl)-9-(3-((1-(3-fluoropropyl)pyrrolidin-3-yl)oxy)-2-methylphenyl)-6,7-dihydro-5H-benzo[7]annulene-3-carboxylic acid] | 78%
Cl.O=C(O)c1ccc2c(c1)CCCC(c1ccccc1)=C2c1cccc(O[C@@H]2CCN(CCCF)C2)c1F [Compound 19, (R)-9-(2-fluoro-3-((1-(3-fluoropropyl)pyrrolidin-3-yl)oxy)phenyl)-8-phenyl-6,7-dihydro-5H-benzo[7]annulene-3-carboxylic acid, hydrochloride] | 82%

same assay, conditions: text statement on comparative compounds

Structure (SMILES) | degradation activity for estrogen receptors (in words)
O=C(O)c1ccc2c(c1)CCCC(c1ccc(Cl)cc1Cl)=C2c1cccc(O[C@H]2CCN(CCCF)C2)c1 [Compound 1a, (S)-8-(2,4-dichlorophenyl)-9-(3-((1-(3-fluoropropyl)pyrrolidin-3-yl)oxy)phenyl)-6,7-dihydro-5H-benzo[7]annulene-3-carboxylic acid] | inactive
O=C(O)c1ccc2c(c1)CCCC(c1ccccc1)=C2c1cccc(O[C@H]2CCN(CCCF)C2)c1 [Compound 2a, (S)-9-(3-((1-(3-fluoropropyl)pyrrolidin-3-yl)oxy)phenyl)-8-phenyl-6,7-dihydro-5H-benzo[7]annulene-3-carboxylic acid] | inactive

Reference: patent publication US20250262186A1 (SANOFI, priority 2022, published 2025)
